From PMC8292346, “Dysfunction of the key ferroptosis-surveilling systems hypersensitizes mice to tubular necrosis during acute kidney injury” (Nature Communications, 2021)
Where “and” joins values, the source holds several entries; their conditions need not be identical. Identical values can stand only once. Entries after “also recorded” stand apart in the source; their conditions may differ.

Assays:
[1] = Inhibited co-autoxidation of egg phosphatidylcholine liposomes and STY-BODIPY (radical-trapping antioxidant activity); conditions: 2 µM Fer-1
Protocol: Inhibitors were then added (5 μl aliquots) at desired concentrations to the appropriate wells followed by vigorous mixing. […] Experiments were performed in triplicate using HPLC grade solvents and kinetic data is given as an average of three independent measurements. […]

HT29 cells = test: TSZ-induced necroptosis, 7-AAD/annexin V flow cytometry; type: cell-based, human; conditions: HT29, TSZ; Nec-1f 10 µM
Protocol: (§1) To induce necroptosis in a human cell line, HT29 cells were stimulated at the indicated time points with 20 ng/ml human TNFα (Biolegend), 1 μM SMAC-mimetics (Birinapant, Chemietek), and 20 μM zVAD-fmk (Selleckchem, herein referred to as zVAD). For the induction of necroptosis in NIH3T3 cells, cells were incubated with 20 ng/ml TNF-α and 20 μM zVAD for indicated time points. […] Cells were seeded in six-well plates or petri dishes. […] After indicated time points, cells were collected and prepared for flow cytometry, immunoblotting, and/or LDH release assays.
(§2) Cells were harvested and the pellets were washed twice in PBS and stained with 5 μl of 7-AAD (BD Biosciences) and 5 μl of annexin-V-FITC (BD Biosciences) added to 100 μl annexin-V binding buffer (BD Biosciences). After 15 min, cells were recorded on the LSRII with the FACS Diva 6.1.1 software (BD Biosciences) and subsequently analyzed with the FlowJo v10 software (Tree Star).

HT1080 cells [2] = test: Ferroptosis inducers (FINs)/ferroptocide, 7-AAD/annexin V flow cytometry; type: cell-based, human; conditions: Nec-1s 30 µM, Nec-1f 30 µM; for double-negative events (7-AAD/annexin V): alone (DMSO) or with Fer-1 1 µM
NIH3T3 cells [3] = test: as above; type: cell-based, murine; conditions: alone (DMSO) or with Fer-1 1 µM, Nec-1s 30 µM, Nec-1f 30 µM
Protocol: as §1, §2

NIH3T3 cells [4] = test: Simultaneous ferroptosis and necroptosis (RSL3 plus TZ), 7-AAD/annexin V flow cytometry; type: cell-based, murine; conditions: NIH3T3, 16 h
Protocol: as §1, §2

HT1080 cells [5] = test: CellTiter-Glo luminescent cell viability assay (ATP), dose-response; type: cell-based, human
Protocol: Cells were plated in an opaque-walled 96-well plate and treatment with ferroptosis inducers and/or ferroptosis inhibitors was initiated 24 h later. […] Here, the reaction agent was directly added to the wells, mixed on an orbital shaker for 2 min, and then incubated at room temperature for 10 min. The luminescence was detected using a Promega GloMax® instrument.

[6] = system: Mouse cortical tubule cells (MCT); test: FINs/ferroptocide, 7-AAD/annexin V flow cytometry; type: cell-based; conditions: for double-negative events (7-AAD/annexin V): MCT, alone (DMSO) or with Fer-1 1 µM, Nec-1s 30 µM, Nec-1f 30 µM
Protocol: as §1, §2

CD10-135 cells = test: FINs/ferroptocide, LDH release assay; type: cell-based, human; design: LDH release: unit not given here; conditions: for LDH release: Nec-1f 30 µM
[7] = system: primary murine tubular cells; test: RSL3-induced LDH release of primary kidney tubular cells; type: cell-based; conditions: primary renal tubular cells, RSL3 14 h
Protocol: The LDH release of cells or of freshly isolated kidney tubules was measured according to manufacturers’ instructions at indicated time points. In brief, an aliquot of the supernatant was taken and Lysis Solution was added for 45 min to induce maximal LDH release before another aliquot of the supernatant was taken. Subsequently, the supernatants were incubated with CytoTox 96® Reagent for 15 min protected from light at room temperature before adding Stop Solution. Absorbance was measured at 490 nm.
Generation, cell culture, and induction of cell death in primary murine tubular cells. Murine tubular cells were generated by outgrowth from isolated renal tubules (see above). Primary murine tubules were placed in six-well plates containing Dulbecco’s Modified Eagle Medium F-12 Nutrient Mixture without phenol red (DMEM/F12, Thermo Fisher), supplemented with 0.01 mg/ml recombinant human insulin, 5.5 μg/ml human transferrin, 0.005 μg/ml Na2SeO3 (ITS without linoleic acid, Sigma Aldrich), 50 nM hydrocortisone, 100 U/ml penicillin, and 100 μg/ml streptomycin (Pen/Strep, Thermo Fisher). After two days, the outgrown primary murine tubular cells were washed with PBS and a fresh medium was added. When the number of primary murine tubular cells reached approximately 50% confluence, the cells were removed from the six-well plates using Trypsin-EDTA (Thermo Fisher), washed with medium and a Ficoll Paque Plus (Sigma Aldrich) gradient was performed to remove any dead cells, and debris from the murine renal tubules. Cells were washed twice with PBS and seeded in six-well plates with medium. Once the number of grown cells reached approximately 50% confluence, they were washed with PBS and treated with type 2 FIN: RSL3 (also see Supplementary Table 2 for details). After 14 h, medium and cells were collected and prepared for LDH release assay. Images of the treated primary murine tubular cells were obtained using a 20×/0.30 PH1 objective on a Leica DMi1 microscope.

NIH3T3 cells [8] = test: Ferroptosis inducers (FINs)/ferroptocide, 7-AAD/annexin V flow cytometry; type: cell-based, murine; conditions: for cells in 7-AAD/annexin V flow cytometry (FigS9b): individual replicates

## CCOC(=O)c1ccc(NC2CCCCC2)c(N)c1 [Fer-1, ferrostatin-1]
[1]; time 53820 s
  ΔSTY-BODIPY: -0.3745 µM
[1]; time 53880 s
  ΔSTY-BODIPY: -0.3737 µM
[1]; time 53940 s
  ΔSTY-BODIPY: -0.3729 µM
[1]; time 54000 s
  ΔSTY-BODIPY: -0.3705 µM
HT29 cells
  Protection against TSZ-induced necroptosis (7-AAD/annexin V, words): did not provide protection against necroptosis
HT1080 cells [2]; HT1080, 1.13 µM RSL3 6 h
  double-negative events (7-AAD/annexin V): 92.2% and 77.7% and 91.5% and 91%
HT1080 cells [2]; HT1080, 5 µM erastin 24 h
  double-negative events (7-AAD/annexin V): 91.8% and 92.7%
HT1080 cells [2]; HT1080, 10 µM FIN56 24 h
  double-negative events (7-AAD/annexin V): 88.3% and 93.1% and 90%
HT1080 cells [2]; HT1080, 10 µM FINO2 24 h
  double-negative events (7-AAD/annexin V): 90.8% and 87.7% and 89.4%
HT1080 cells [2]; HT1080, 10 µM ferroptocide 24 h
  double-negative events (7-AAD/annexin V): 71.3% and 77%
HT1080 cells [2]; HT1080, Fer-1 1 µM
  Inhibition of cell death induction by FINs/ferroptocide: inhibition of cell death induction
NIH3T3 cells [3]; NIH3T3, 1.13 µM RSL3 6 h
  double-negative events (7-AAD/annexin V): 90.9% and 88.3% and 95.7% and 97.7% and 79%
NIH3T3 cells [3]; NIH3T3, 5 µM erastin 24 h
  double-negative events (7-AAD/annexin V): 93.3% and 78.4% and 95.1% and 95.2%
NIH3T3 cells [3]; NIH3T3, 10 µM FIN56 24 h
  double-negative events (7-AAD/annexin V): 94.7% and 91.5% and 96.4%
NIH3T3 cells [3]; NIH3T3, 10 µM FINO2 24 h
  double-negative events (7-AAD/annexin V): 79% and 79.9% and 82.9% and 91%
NIH3T3 cells [4]
  Rescue from necrosis induced by RSL3 plus TZ: fail to rescue
HT1080 cells [5]; HT1080 + Erastin, inhibitor concentration 0.01 (unit not given)
  ATP luminescence (CellTiterGlo): 8.302%
HT1080 cells [5]; HT1080 + Erastin, inhibitor concentration 0.1 (unit not given)
  ATP luminescence (CellTiterGlo): 100.351%
HT1080 cells [5]; HT1080 + Erastin, inhibitor concentration 1 (unit not given)
  ATP luminescence (CellTiterGlo): 97.0601%
HT1080 cells [5]; HT1080 + Erastin, inhibitor concentration 10 (unit not given)
  ATP luminescence (CellTiterGlo): 92.1314%
HT1080 cells [5]; HT1080 + Erastin, inhibitor concentration 30 (unit not given)
  ATP luminescence (CellTiterGlo): 88.0064%
HT1080 cells [5]; HT1080 + Ferroptocide, inhibitor concentration 0.01 (unit not given)
  ATP luminescence (CellTiterGlo): 2.0385% and 1.258%
HT1080 cells [5]; HT1080 + RSL3, inhibitor concentration 0.01 (unit not given)
  ATP luminescence (CellTiterGlo): 46.842% and 51.9737%
HT1080 cells [5]; HT1080 + RSL3, inhibitor concentration 0.1 (unit not given)
  ATP luminescence (CellTiterGlo): 61.3859% and 117.078%
HT1080 cells [5]; HT1080 + RSL3, inhibitor concentration 1 (unit not given)
  ATP luminescence (CellTiterGlo): 60.0511% and 109.723%
HT1080 cells [5]; HT1080 + RSL3, inhibitor concentration 10 (unit not given)
  ATP luminescence (CellTiterGlo): 58.2722% and 113.348%
[6]; MCT cells
  Effect on RSL3- and FINO2-induced ferroptosis: reversed
[6]; 1.13 µM RSL3 6 h
  double-negative events (7-AAD/annexin V): 96.6% and 93.5% and 69%
[6]; 5 µM erastin 24 h
  double-negative events (7-AAD/annexin V): 79.5% and 84.2% and 82.8% and 86.9%
[6]; 10 µM FIN56 24 h
  double-negative events (7-AAD/annexin V): 89.5% and 93.6% and 90.5%
[6]; 10 µM FINO2 24 h
  double-negative events (7-AAD/annexin V): 96% and 77.1% and 92.8% and 95.9% and 89.7%
[6]; 10 µM ferroptocide 24 h
  double-negative events (7-AAD/annexin V): 86.2% and 85.5% and 72.2% and 89.6% and 67.8% and 73.5%
CD10-135 cells; CD10-135, FIN56 alone (FIN) or with Fer-1, Nec-1s
  LDH release: 8.38 and 8.509 and 10.9286
CD10-135 cells; CD10-135, FINO2 alone (FIN) or with Fer-1, Nec-1s
  LDH release: 8.33 and 7.093 and 7.5109
CD10-135 cells; CD10-135, RSL3 alone (FIN) or with Fer-1, Nec-1s
  LDH release: 6.44 and 3.43
CD10-135 cells; CD10-135, ferroptocide alone (FIN) or with Fer-1, Nec-1s
  LDH release: 30.26 and 29.1563
CD10-135 cells; CD10-135 cells
  Effect on FIN-induced LDH release: reversed
  Effect on the phenotype induced by ferroptocide: reversed the phenotype
[7]
  Effect on RSL3-induced LDH release: prevented; also recorded: complete reversal of LDH release
NIH3T3 cells [8]; Erastin-induced ferroptosis
  cells in 7-AAD/annexin V flow cytometry (FigS9b): 95.0% and 94.0% and 92.0%
NIH3T3 cells [8]; FIN56-induced ferroptosis
  cells in 7-AAD/annexin V flow cytometry (FigS9b): 94.1% and 94.0%
NIH3T3 cells [8]; FINO2-induced ferroptosis
  cells in 7-AAD/annexin V flow cytometry (FigS9b): 90.0% and 90.2%
NIH3T3 cells [8]; Ferroptocide-induced cell death
  cells in 7-AAD/annexin V flow cytometry (FigS9b): 93.0% and 79.0%
NIH3T3 cells [8]; NIH3T3, 10 µM ferroptocide 24 h, alone (DMSO) or with Fer-1 1 µM, Nec-1s 30 µM, Nec-1f 30 µM
  double-negative events (7-AAD/annexin V): 76.5% and 92.2% and 95.9% and 92.6%
NIH3T3 cells [8]; RSL3-induced ferroptosis
  cells in 7-AAD/annexin V flow cytometry (FigS9b): 95.0% and 92.0%
